Earlier results on one substance are cited in patent publication US20120142605A1, “METHODS OF TREATING PSORIASIS” (Amgen Inc., priority 2009, published 2012).

This series deals with psoriasis patients. Conditions: not completely effective for all patients.

As for etanercept, the “time for which it can be safely and effectively used” value is “at least 96 weeks”.
